Measured values published in the supplement of paper PMC10307832.

Assays:
Assay in all cases: relative viability (nuclei count vs DMSO), 5 days (fraction); higher = more cells survive
Quizartinib + Crizotinib = compound: CC(C)(C)c1cc(NC(=O)Nc2ccc(-c3cn4c(n3)sc3cc(OCCN5CCOCC5)ccc34)cc2)no1 [Quizartinib] + C[C@@H](Oc1cc(-c2cnn(C3CCNCC3)c2)cnc1N)c1c(Cl)ccc(F)c1Cl [Crizotinib] (partner 1 µM)
In short: (§1)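 Each reported value is a median over duplicate plates. It expresses relative viability: treated-well nuclei count divided by vehicle-well nuclei count. Lung cancer cell lines in 1536-well plates were dosed by pin tool a day after seeding, alone with one drug or with a fixed anchor-drug dose plus five library-drug doses (not always all listed) in √10 steps, and nuclei were counted after 5 days.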

Quizartinib + Decitabine = compound: CC(C)(C)c1cc(NC(=O)Nc2ccc(-c3cn4c(n3)sc3cc(OCCN5CCOCC5)ccc34)cc2)no1 [Quizartinib] + Nc1ncn([C@H]2C[C@H](O)[C@@H](CO)O2)c(=O)n1 [Decitabine] (partner 2 µM)
In short: as §1

YM155 + Tozasertib = compound: COCC[n+]1c2c(n(Cc3cnccn3)c1C)C(=O)c1ccccc1C2=O [YM155] + Cc1cc(Nc2cc(N3CCN(C)CC3)nc(Sc3ccc(NC(=O)C4CC4)cc3)n2)n[nH]1 [Tozasertib] (partner 0.1 µM)
In short: as §1

YM155 + Vorinostat = compound: COCC[n+]1c2c(n(Cc3cnccn3)c1C)C(=O)c1ccccc1C2=O [YM155] + O=C(CCCCCCC(=O)Nc1ccccc1)NO [Vorinostat] (partner 1 µM)
In short: as §1

Cell Line | relative viability (Quizartinib + Crizotinib; first compound 0.003162 µM) | relative viability (Quizartinib + Crizotinib; first compound 0.01 µM) | relative viability (Quizartinib + Crizotinib; first compound 0.03162 µM) | relative viability (Quizartinib + Crizotinib; first compound 0.1 µM) | relative viability (Quizartinib + Decitabine; first compound 0.001 µM) | relative viability (Quizartinib + Decitabine; first compound 0.003162 µM) | relative viability (Quizartinib + Decitabine; first compound 0.01 µM) | relative viability (Quizartinib + Decitabine; first compound 0.03162 µM) | relative viability (Quizartinib + Decitabine; first compound 0.1 µM) | relative viability (YM155 + Tozasertib; first compound 0.002 µM) | relative viability (YM155 + Tozasertib; first compound 0.006325 µM) | relative viability (YM155 + Tozasertib; first compound 0.02 µM) | relative viability (YM155 + Tozasertib; first compound 0.06325 µM) | relative viability (YM155 + Vorinostat; first compound 0.006325 µM) | relative viability (YM155 + Vorinostat; first compound 0.02 µM) | relative viability (YM155 + Vorinostat; first compound 0.06325 µM) | relative viability (Quizartinib + Crizotinib; first compound 0.001 µM) | relative viability (YM155 + Vorinostat; first compound 0.002 µM)
NCI-H23 | 0.478 | 0.514 | 0.483 | 0.486 | 0.267 | 0.266 | 0.33 | 0.278 | 0.317 | 0.373 | 0.345 | 0.53 | 0.286 | 0.555 | 0.626 | 0.544 | – | –
NCI-H322M | 0.803 | 0.955 | 0.857 | 0.997 | 0.685 | 0.653 | 0.681 | 0.72 | 0.763 | 0.461 | 0.496 | 0.504 | 0.46 | 0.925 | 0.854 | 0.909 | 0.881 | 0.85
NCI-H358 | 0.558 | 0.66 | – | 0.38 | 0.194 | 0.209 | 0.232 | – | 0.192 | 0.111 | 0.126 | 0.103 | 0.0626 | 0.643 | 0.86 | 0.106 | 0.584 | 0.641
NCI-H522 | – | – | – | – | 0.684 | 0.7 | 0.67 | 0.603 | 0.618 | 0.522 | 0.557 | 0.599 | 0.582 | 0.78 | 0.933 | 0.932 | – | 0.846
NCI-H1299 | 0.949 | 1.01 | 0.928 | 0.956 | – | – | – | – | – | – | – | – | – | – | – | – | 0.92 | –
NCI-H1395 | – | – | – | – | 0.718 | 0.74 | 0.728 | 0.718 | 0.774 | 0.788 | 0.779 | 0.814 | 0.777 | 0.727 | 0.864 | 0.696 | – | 0.691
